Paper PMC4084896 (PLoS ONE, 2014)
Converted amounts (≈) assume the structure as drawn.

Legend:
[1] = system: CYP1A1 catalytic activity (7-ethoxyresorufin-O-deethylase)
AhR = molecular target: T1, AhR (Mus musculus, UniProt P30561); test: EMSA with nuclear extracts from Hepa-1c1c7 cells (AhR-ARNT-DRE complex); format: cell-based; settings: Hepa-1c1c7 nuclear extracts, 50 µM, 2 h
T1 construct: endogenous in cells; host or cells: mouse hepatoma Hepa-1c1c7 cells (living cells treated 2 h, then nuclear extracts made)
Method: Electrophoretic mobility shift assay was performed in guinea pig cytosol and nuclear extract from mouse hepatoma cells. Hepa-1c1c7 cells were incubated for 2 h with tested compounds. Nuclear extracts procedure and EMSA analysis was performed as previously described (Soshilov & Denison; 2014). Guinea pig hepatic cytosol (8 mg/mL in HEDG) was incubated for 2 h in a room temperature water bath with tested compounds. An aliquot of the reaction was mixed with poly[dI•dC] and [^32P]-DRE (100.000 cpm), and AHR:DRE:[^32P]DRE complexes were resolved by gel retardation analysis, visualized by autoradiography and quantified by phosphorimager analysis (FujiFilm) of the dried gels.
We carried out the electrophoretic mobility shift assay (EMSA) to reveal whether effects of KET on AhR-CYP1A pathway involve transformation of AhR to DNA binding form, and whether these effects are enantiospecific. For this purpose, EMSA was performed in two experimental systems: (i) Hepatic guinea pig cytosol was treated for 2 hours with DMSO, 20 nM TCDD, (+)-KET, (−)-KET and commercial rac-KET (from Sigma) at 10 µM, 30 µM and 50 µM. All forms of KET transformed AhR to DNA binding form, but the activation was very weak and not statistically above background. There was a slightly stronger effect of (+)-KET and rac-KET as compared to (−)-KET, but the difference was not significant (Figure 4A). (ii) Since we obtained only weak signals in guinea pig liver cytosols, we also analyzed nuclear extracts from mouse hepatoma Hepa-1c1c7 cells treated for 2 hours with DMSO, TCDD (10 nM), (+)-KET (50 µM), (−)-KET (50 µM), commercial rac-KET (Sigma; 50 µM) or an equimolar mix of (+)/(−) enantiomers (50 µM total). […] The effects of (−)-KET were slightly stronger as compared to (+)-KET. […] In addition, we observed formation of the second band with lower molecular weight than AhR-ARNT-DRE, by purified KET enantiomers but not by TCDD and commercial KET.

[2] = MTT cytotoxicity test in AZ-AHR cells; format: cell-based, human; settings: human; 24 h incubation, six passages; read-out: AZ-AHR viability - MTT IC50
Excerpt: (§1) A stably transfected gene reporter cell line AZ-AHR, derived from human hepatoma HepG2 cells transfected with a construct containing several AhR binding sites upstream of a luciferase reporter gene, was used for assessment of AhR transcriptional activity. A stably transfected gene reporter cell line AZ-GR, derived from human cervix carcinoma HeLa cells transfected with a construct containing several GR response elements upstream of a luciferase reporter gene, was used for assessment of GR transcriptional activity. Cells were incubated for 24 h with tested compounds and/or vehicle (DMSO; 0.1% v/v), in the presence or absence of TCDD (5 nM; AZ-AHR cells) or DEX (100 nM; AZ-GR cells). After the treatments, cells were lysed and luciferase activity was measured. In parallel, cell viability was determined by conventional MTT test.
(§2) Prior to the agonist or antagonist experiments, the cytotoxicity of tested compounds was assessed using the conventional MTT assay. […] The vehicle was DMSO (0.1% v/v). After the treatment, a MTT test was performed.

[3] = MTT cytotoxicity test in primary human hepatocytes; format: cell-based; settings: primary human hepatocytes, read-out: viability, % of control value
Excerpt: as §1
(§3) The cells were treated for 24 h with (+)-KET, (−)-KET and commercial rac-KET (1 µM, 30 µM, 50 µM), and with TCDD (5 nM) and vehicle (DMSO; 0.1% V/V). […] In the cytotoxicity assay, we found all forms of KET highly toxic against human hepatocytes at the concentration 50 µM.

AZ-AHR cells = test: MTT cytotoxicity test in AZ-AHR cells; format: cell-based, human; settings: 24 h incubation, six passages; read-out: AZ-AHR viability - MTT IC50
Excerpt: as §1, §2

C. tropicalis 5 = test: MIC assessment, microdilution; format: cell-based; settings: 48 h, 37°C, MFC same as MIC
Method: (§4) Antifungal activity was assessed using the standard microdilution method determining the minimum inhibitory concentrations (MICs) of the tested samples leading to inhibition of yeast growth. Disposable microtiter plates were used for the tests. The samples were diluted in brain heart infusion broth (HiMedia). […] C. albicans, C. krusei, C. tropicalis and C. parapsilosis. […] Subsequently, 100 µL were transferred into the first microplate well and serially diluted by a factor of 2. The prepared microplates were inoculated with a standard amount of the tested Candida spp. – the inoculum density in a well was equal to 10^5 CFU/mL. […] The minimum fungicidal concentration (MFC) is the minimum concentration of the sample required to kill the yeast after a defined period of incubation. The MFCs were determined by the inoculation method. With an applicator, 10 µL were transferred from the microplate wells with defined concentrations of the tested sample and inoculated onto Sabouraud agar (Trios). The MFC was determined as the lowest concentration that inhibited the visible growth of the used yeast. For growth curve assessment, the samples were serially diluted in 96-well microtiter plates. […] Absorbance (630 nm) was measured every hour during 24 hours and the obtained values were used to plot growth curves

C. albicans 1 = test: MIC assessment, microdilution; format: cell-based; settings: 48 h, 37°C, MFC same as MIC
Method: as §4

C. albicans 978 = test: MIC assessment, microdilution; format: cell-based; settings: 48 h, 37°C, MFC same as MIC
Method: as §4

[4] = system: primary human hepatocytes; test: MTT cytotoxicity test in primary human hepatocytes; format: cell-based; settings: 50 µM, 24 h
Excerpt: as §1, §3

T1 sequence (P30561 10-805 limits assumed): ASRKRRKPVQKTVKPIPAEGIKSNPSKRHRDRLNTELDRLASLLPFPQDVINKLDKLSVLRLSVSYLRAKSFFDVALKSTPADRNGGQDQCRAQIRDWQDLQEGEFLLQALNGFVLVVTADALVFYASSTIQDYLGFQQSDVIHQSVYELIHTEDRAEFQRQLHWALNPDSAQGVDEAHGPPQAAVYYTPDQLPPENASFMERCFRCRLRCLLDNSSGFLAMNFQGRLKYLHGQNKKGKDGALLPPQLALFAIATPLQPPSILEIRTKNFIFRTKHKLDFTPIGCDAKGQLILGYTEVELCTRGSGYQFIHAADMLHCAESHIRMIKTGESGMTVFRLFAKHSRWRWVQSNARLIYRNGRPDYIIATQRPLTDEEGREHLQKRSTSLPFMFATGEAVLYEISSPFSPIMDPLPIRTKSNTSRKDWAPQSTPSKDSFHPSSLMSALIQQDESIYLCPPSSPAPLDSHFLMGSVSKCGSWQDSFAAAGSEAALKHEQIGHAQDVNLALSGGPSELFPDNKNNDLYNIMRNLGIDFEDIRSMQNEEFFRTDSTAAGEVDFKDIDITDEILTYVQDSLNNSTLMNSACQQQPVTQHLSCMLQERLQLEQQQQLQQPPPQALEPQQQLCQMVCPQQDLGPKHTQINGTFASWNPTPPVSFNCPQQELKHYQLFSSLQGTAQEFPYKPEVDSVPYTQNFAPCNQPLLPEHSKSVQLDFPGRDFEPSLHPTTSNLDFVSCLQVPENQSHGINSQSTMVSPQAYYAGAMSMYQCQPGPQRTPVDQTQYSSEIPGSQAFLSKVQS
T1 sequence (P53762 whole entry partner): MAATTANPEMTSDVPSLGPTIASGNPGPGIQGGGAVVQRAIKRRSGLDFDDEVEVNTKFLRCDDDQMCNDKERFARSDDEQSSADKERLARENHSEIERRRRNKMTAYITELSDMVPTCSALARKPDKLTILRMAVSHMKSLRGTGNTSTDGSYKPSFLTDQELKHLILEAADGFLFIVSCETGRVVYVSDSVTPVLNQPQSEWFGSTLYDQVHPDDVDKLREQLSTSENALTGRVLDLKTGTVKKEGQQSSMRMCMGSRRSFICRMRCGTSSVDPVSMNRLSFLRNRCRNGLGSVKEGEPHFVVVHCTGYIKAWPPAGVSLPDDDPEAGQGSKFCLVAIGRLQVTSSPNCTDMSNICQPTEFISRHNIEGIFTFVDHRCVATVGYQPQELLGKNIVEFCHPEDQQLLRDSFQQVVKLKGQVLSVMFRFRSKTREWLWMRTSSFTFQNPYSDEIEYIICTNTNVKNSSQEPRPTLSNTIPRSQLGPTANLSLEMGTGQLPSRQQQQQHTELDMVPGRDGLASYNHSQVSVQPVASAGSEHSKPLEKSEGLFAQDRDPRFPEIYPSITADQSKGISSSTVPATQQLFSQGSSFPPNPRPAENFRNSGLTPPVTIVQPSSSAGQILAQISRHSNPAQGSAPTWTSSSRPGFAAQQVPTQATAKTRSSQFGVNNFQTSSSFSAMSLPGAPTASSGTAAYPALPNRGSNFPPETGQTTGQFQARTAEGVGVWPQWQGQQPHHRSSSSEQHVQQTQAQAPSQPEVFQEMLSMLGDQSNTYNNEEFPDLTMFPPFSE

Structure (SMILES) | EROD activity (in words) [1] | formation of AhR-ARNT-DRE complex, % of TCDD effects (AhR; TCDD 10 nM) | IC50 at 24 h [2] [µM] | viability at 24 h, 50 µM [3] [%] | transformation of AhR to DNA binding form (in words) (AhR) | IC50 (AZ-AHR cells) [µM] | MIC/MFC (C. tropicalis 5) [µM] | MIC/MFC (C. albicans 1) [µM] | MIC/MFC (C. albicans 978) [µM] | viability, % of control value [4] [%]
CC(=O)N1CCN(c2ccc(OCC3COC(Cn4ccnc4)(c4ccc(Cl)cc4Cl)O3)cc2)CC1 (racemic) [rac-KET, ketoconazole] | increased the EROD activity in a concentration-dependent manner | approx. 60% | 67.2 ± 24.8 | 46 | – | – | – | – | – | –
CC(=O)N1CCN(c2ccc(OC[C@H]3CO[C@](Cn4ccnc4)(c4ccc(Cl)cc4Cl)O3)cc2)CC1 [(+)-KET, (2R,4S)-(+)-KET] | – | – | – | – | only weakly transformed | 77.3 ± 23.9 | 3.13 (≈ 1.66 µg/mL) | 25 (≈ 13.3 µg/mL) | 25 (≈ 13.3 µg/mL) | 15
